From PubChem BioAssay AID2060604 (Molecular Pharmacology Branch, DTP, NCI, 2025)

Test system: 379773-124-R-J2-PDC complex spheroids, viability % test/control
Test: Anticancer human tumor 379773-124-R-J2-PDC patient-derived endometrial carcinoma cell line growth inhibition [CLK]
Settings: for IC50: curve of first compound; for viability, T/C: stronger effect = lower value
How it was run: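 Multi-cell-type spheroids combined patient-derived tumor cells with HUVEC endothelial cells and human mesenchymal stem cells. Paired agents were dosed in half-log steps down from about clinical Cmax, or from 10 microM where Cmax was unknown.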

[1] = second compound 0.0316 µM, first compound 0.0316 µM
[2] = second compound 0.0316 µM, first compound 0.1 µM
[3] = second compound 0.0316 µM, first compound 0.316 µM
[4] = second compound 0.0316 µM, first compound 1 µM
[5] = second compound 0.0316 µM, first compound 3.16 µM
[6] = second compound 0.0316 µM, first compound 10 µM
[7] = second compound 0.1 µM, first compound 0.0316 µM
[8] = second compound 0.1 µM, first compound 0.1 µM
[9] = second compound 0.1 µM, first compound 0.316 µM
[10] = second compound 0.1 µM, first compound 1 µM
[11] = second compound 0.1 µM, first compound 3.16 µM
[12] = second compound 0.1 µM, first compound 10 µM
[13] = second compound 0.316 µM, first compound 0.0316 µM
[14] = second compound 0.316 µM, first compound 0.1 µM
[15] = second compound 0.316 µM, first compound 0.316 µM
[16] = second compound 0.316 µM, first compound 1 µM
[17] = second compound 0.316 µM, first compound 3.16 µM
[18] = second compound 0.316 µM, first compound 10 µM
[19] = second compound 1 µM, first compound 0.0316 µM
[20] = second compound 1 µM, first compound 0.1 µM
[21] = second compound 1 µM, first compound 0.316 µM
[22] = second compound 1 µM, first compound 1 µM
[23] = second compound 1 µM, first compound 3.16 µM
[24] = second compound 1 µM, first compound 10 µM
[25] = second compound 3.16 µM, first compound 0.0316 µM
[26] = second compound 3.16 µM, first compound 0.1 µM
[27] = second compound 3.16 µM, first compound 0.316 µM
[28] = second compound 3.16 µM, first compound 1 µM
[29] = second compound 3.16 µM, first compound 3.16 µM
[30] = second compound 3.16 µM, first compound 10 µM
[31] = second compound 10 µM, first compound 0.0316 µM
[32] = second compound 10 µM, first compound 0.1 µM
[33] = second compound 10 µM, first compound 0.316 µM
[34] = second compound 10 µM, first compound 1 µM
[35] = second compound 10 µM, first compound 3.16 µM
[36] = second compound 10 µM, first compound 10 µM
[37] = second compound 0.0316 µM, first compound 0.00316 µM
[38] = second compound 0.0316 µM, first compound 0.01 µM
[39] = second compound 0.1 µM, first compound 0.00316 µM
[40] = second compound 0.1 µM, first compound 0.01 µM
[41] = second compound 0.316 µM, first compound 0.00316 µM
[42] = second compound 0.316 µM, first compound 0.01 µM
[43] = second compound 1 µM, first compound 0.00316 µM
[44] = second compound 1 µM, first compound 0.01 µM
[45] = second compound 3.16 µM, first compound 0.00316 µM
[46] = second compound 3.16 µM, first compound 0.01 µM
[47] = second compound 10 µM, first compound 0.00316 µM
[48] = second compound 10 µM, first compound 0.01 µM
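Further: compound exposure lasted seven days before the viability readout.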
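Wherever viability, T/C is given: 100% = DMSO vehicle control wells.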

## CC(CO)NC(=O)c1cc(-c2ccc(Cl)cc2)nn(-c2cnn(C)c2)c1=O (stereo not drawn) + CNC(=O)c1ccc(Nc2nc(OC3CCCC3)c3c(-c4ccc5nc(C)oc5c4)c[nH]c3n2)c(OC)c1
Second compound 0.0316 µM
  IC50: > 10000 nM
Second compound 0.1 µM
  IC50: < 31.6 nM
Second compound 0.316 µM
  IC50: < 31.6 nM
Second compound 1 µM
  IC50: < 31.6 nM
Second compound 3.16 µM
  IC50: < 31.6 nM
Second compound 10 µM
  IC50: < 31.6 nM
[1]
  viability, T/C: 72%
[2]
  viability, T/C: 80.9%
[3]
  viability, T/C: 70.2%
[4]
  viability, T/C: 74.2%
[5]
  viability, T/C: 72.4%
[6]
  viability, T/C: 52.2%
[7]
  viability, T/C: 48.2%
[8]
  viability, T/C: 48.5%
[9]
  viability, T/C: 44.4%
[10]
  viability, T/C: 38.9%
[11]
  viability, T/C: 36.8%
[12]
  viability, T/C: 33.3%
[13]
  viability, T/C: 42.1%
[14]
  viability, T/C: 42.2%
[15]
  viability, T/C: 37.7%
[16]
  viability, T/C: 35.4%
[17]
  viability, T/C: 43.8%
[18]
  viability, T/C: 29.9%
[19]
  viability, T/C: 32.2%
[20]
  viability, T/C: 37.4%
[21]
  viability, T/C: 34.8%
[22]
  viability, T/C: 34.6%
[23]
  viability, T/C: 35.6%
[24]
  viability, T/C: 25.2%
[25]
  viability, T/C: 32.6%
[26]
  viability, T/C: 30%
[27]
  viability, T/C: 32.5%
[28]
  viability, T/C: 30.9%
[29]
  viability, T/C: 34.5%
[30]
  viability, T/C: 24.4%
[31]
  viability, T/C: 32%
[32]
  viability, T/C: 30.5%
[33]
  viability, T/C: 28.5%
[34]
  viability, T/C: 35.8%
[35]
  viability, T/C: 32.4%
[36]
  viability, T/C: 22.7%

## CC(Nc1ccc2c(c1)OCCn1cc(N3C(=O)OCC3C(F)F)nc1-2)C(N)=O (stereo not drawn) + CNC(=O)c1ccc(Nc2nc(OC3CCCC3)c3c(-c4ccc5nc(C)oc5c4)c[nH]c3n2)c(OC)c1
Second compound 0.0316 µM
  IC50: > 10000 nM
Second compound 0.1 µM
  IC50: < 31.6 nM
Second compound 0.316 µM
  IC50: < 31.6 nM
Second compound 1 µM
  IC50: < 31.6 nM
Second compound 3.16 µM
  IC50: < 31.6 nM
Second compound 10 µM
  IC50: < 31.6 nM
[1]
  viability, T/C: 74.7%
[2]
  viability, T/C: 72.8%
[3]
  viability, T/C: 78.1%
[4]
  viability, T/C: 73.9%
[5]
  viability, T/C: 76.3%
[6]
  viability, T/C: 62.8%
[7]
  viability, T/C: 38.7%
[8]
  viability, T/C: 33.6%
[9]
  viability, T/C: 21.3%
[10]
  viability, T/C: 23.2%
[11]
  viability, T/C: 24.6%
[12]
  viability, T/C: 15.3%
[13]
  viability, T/C: 40.3%
[14]
  viability, T/C: 30.3%
[15]
  viability, T/C: 29.1%
[16]
  viability, T/C: 29.2%
[17]
  viability, T/C: 19.1%
[18]
  viability, T/C: 16.7%
[19]
  viability, T/C: 35.5%
[20]
  viability, T/C: 28.9%
[21]
  viability, T/C: 25.1%
[22]
  viability, T/C: 22.4%
[23]
  viability, T/C: 19.9%
[24]
  viability, T/C: 9.04%
[25]
  viability, T/C: 32.5%
[26]
  viability, T/C: 30%
[27]
  viability, T/C: 23%
[28]
  viability, T/C: 22.7%
[29]
  viability, T/C: 18.3%
[30]
  viability, T/C: 11.7%
[31]
  viability, T/C: 32.5%
[32]
  viability, T/C: 28.6%
[33]
  viability, T/C: 23.5%
[34]
  viability, T/C: 18.6%
[35]
  viability, T/C: 22.3%
[36]
  viability, T/C: 14%

## CCN1CCN(Cc2ccc(Nc3ncc(F)c(-c4cc(F)c5nc(C)n(C(C)C)c5c4)n3)nc2)CC1 + CNC(=O)c1ccc(Nc2nc(OC3CCCC3)c3c(-c4ccc5nc(C)oc5c4)c[nH]c3n2)c(OC)c1
Second compound 0.0316 µM
  IC50: > 1000 nM
Second compound 0.1 µM
  IC50: < 3.16 nM
Second compound 0.316 µM
  IC50: < 3.16 nM
Second compound 1 µM
  IC50: < 3.16 nM
Second compound 3.16 µM
  IC50: < 3.16 nM
Second compound 10 µM
  IC50: < 3.16 nM
[37]
  viability, T/C: 74.5%
[38]
  viability, T/C: 77.5%
[1]
  viability, T/C: 75.4%
[2]
  viability, T/C: 76.6%
[3]
  viability, T/C: 87.1%
[4]
  viability, T/C: 81.5%
[39]
  viability, T/C: 32.6%
[40]
  viability, T/C: 48.7%
[7]
  viability, T/C: 40.5%
[8]
  viability, T/C: 31.1%
[9]
  viability, T/C: 42.7%
[10]
  viability, T/C: 37.2%
[41]
  viability, T/C: 31.9%
[42]
  viability, T/C: 41.5%
[13]
  viability, T/C: 40%
[14]
  viability, T/C: 38%
[15]
  viability, T/C: 44.6%
[16]
  viability, T/C: 31.5%
[43]
  viability, T/C: 43.2%
[44]
  viability, T/C: 30.3%
[19]
  viability, T/C: 31.3%
[20]
  viability, T/C: 30%
[21]
  viability, T/C: 36%
[22]
  viability, T/C: 34.1%
[45]
  viability, T/C: 33.8%
[46]
  viability, T/C: 31.4%
[25]
  viability, T/C: 34.2%
[26]
  viability, T/C: 31.5%
[27]
  viability, T/C: 44.9%
[28]
  viability, T/C: 28.5%
[47]
  viability, T/C: 32.5%
[48]
  viability, T/C: 24.3%
[31]
  viability, T/C: 35.7%
[32]
  viability, T/C: 30.9%
[33]
  viability, T/C: 37.3%
[34]
  viability, T/C: 33.2%

## COc1c(OCCCN2CCOCC2)ccc2c3n(c(=NC(=O)c4cnc(N)nc4)nc12)CCN3 + CNC(=O)c1ccc(Nc2nc(OC3CCCC3)c3c(-c4ccc5nc(C)oc5c4)c[nH]c3n2)c(OC)c1
Second compound 0.0316 µM
  IC50: 59.5 nM
Second compound 0.1 µM
  IC50: < 3.16 nM
Second compound 0.316 µM
  IC50: < 3.16 nM
Second compound 1 µM
  IC50: < 3.16 nM
Second compound 3.16 µM
  IC50: < 3.16 nM
Second compound 10 µM
  IC50: < 3.16 nM
[37]
  viability, T/C: 81.8%
[38]
  viability, T/C: 85.6%
[1]
  viability, T/C: 65%
[2]
  viability, T/C: 37.5%
[3]
  viability, T/C: 6.4%
[4]
  viability, T/C: 2.99%
[39]
  viability, T/C: 31.6%
[40]
  viability, T/C: 29%
[7]
  viability, T/C: 25.3%
[8]
  viability, T/C: 14.5%
[9]
  viability, T/C: 4.25%
[10]
  viability, T/C: 1.91%
[41]
  viability, T/C: 34.9%
[42]
  viability, T/C: 32.7%
[13]
  viability, T/C: 19.5%
[14]
  viability, T/C: 10.1%
[15]
  viability, T/C: 3.08%
[16]
  viability, T/C: 1.56%
[43]
  viability, T/C: 38.9%
[44]
  viability, T/C: 25.7%
[19]
  viability, T/C: 17.8%
[20]
  viability, T/C: 7.48%
[21]
  viability, T/C: 1.73%
[22]
  viability, T/C: 1.03%
[45]
  viability, T/C: 28.3%
[46]
  viability, T/C: 24.1%
[25]
  viability, T/C: 15.3%
[26]
  viability, T/C: 8.87%
[27]
  viability, T/C: 2.29%
[28]
  viability, T/C: 0.59%
[47]
  viability, T/C: 22.5%
[48]
  viability, T/C: 21.5%
[31]
  viability, T/C: 16.8%
[32]
  viability, T/C: 7.19%
[33]
  viability, T/C: 1.54%
[34]
  viability, T/C: 0.67%
